Measurements reported in patent publication US6346539B1, “Treatment of skin conditions” (BTG International Limited, priority 1998, dated 2002).
Marks after values point to notes of the source that are not given here.

Key:
human melanocytes [1] = test: Melanin production of human melanocytes cultured in petri dishes; format: cell-based; settings: 5 days
Experimental: (§1) For the second protocol, subconfluent human melanocytes were subcultured in a Ø60 mm petri dishes (28 cm^2, Falcon) with RPMI 1640 basic medium supplemented with FBS (10%), CT (1 nM), bFGF (100 pM) and endothelin 1 (1 nM). The initial plating density was 10,000 cells/cm^2, with 5 ml medium per dish. Cells were incubated for 2-3 hours in 10% CO2, humidified atmosphere, at 37° C., followed by addition of piperine solution in to the dishes, making the final concentrations of 0, 1, 5, 10 and 100 μM. Cells in the above supplemented medium lacking endothelin 1 were also set up as a negative control. Three dishes were used for each treatment and the culture was maintained for 5 days before cells were harvested with trypsinisation and counted with a haemocytometer chamber. For melanin production experiment, the harvested cells were centrifuged and pelleted. After carefully removing the medium, NaOH (1 M) was used to solubilized the cell pellets and optical density read at 475 nm in a Perkin-Elmer UV spectrophotometer (model UV/VIS Lambda 2). The melanin content was calculated by using a regression equation y=0.005+0.005× corresponding to the calibration curve for synthetic melanin.

FM21E Melanoblast = test: Effects of piperine and TPA on growth of human melanoblasts, SRB assay; format: cell-based
Experimental: (§2) In order to determine the specificity of piperine, a panel of different cell types were employed to facilitate this investigation. These included melan-a, melan-c, SVK14, CSM, XB2, SC1, B16F10, IM9, CACO2, Swiss 3T3 cell lines and normal human lymphocytes. TPA (20 nM) was also tested on these cells.
Human melanoblasts in culture in this experiment were established from human foetal skin. Subconfluent melanoblasts maintained in MCDB 153 medium supplemented with 10% FBS, 10 ng/ml stem cell factor (SCF) and 1 nM endothelin 3 were subcultured and inoculated into 96-well microplate with 6×10^3 cells/100 μl/well. After incubation in the 10% CO2, humidified atmosphere, at 37° C. for 3-4 hours to allow the attachment of the cells on the plate, piperine dissolved in MeOH and water was added into the wells. The final concentrations of piperine were 1, 5, 10, 100 μM, with TPA (20 nM) as positive control. Six replicates were used in each group of treatment, with 12 wells used for vehicle control. The incubation was conducted for 5 days before cells were harvested by fixing with cold trichloroacetic acid (TCA, at 4° C., final concentration 20% v/v), and evaluated for cell number using an SRB assay. […] Growth in the presence of piperine and TPA was expressed as % of control incubations containing no piperine or TPA. […]

Melan-a = test: Effects of piperine and TPA on growth of Melan-a (panel of cell types); format: cell-based, mouse; settings: piperine 0.1 and 1 μM (FIG. 4)
Experimental: (§3) Cells of mouse melan-a cell line (passage number 18-24), a first known line of non-tumorigenic pigmented mouse melanocytes were maintained in a flask (Costar, Cambridge, Mass., USA) using RPMI 1640 (ICN, Costa, Mesa, Calif., USA) as a basic medium. For microplate proliferation assays, subconfluent melan-a cultures were trypsinized (0.25% trypsin at 37° C. for 5-10 min) and inoculated with a repeater-pipettor (Finn pipette, Labsystems, Finland) into 96-well microtiter plates (Costar, Cambridge, Mass., USA). The plates were incubated at 37° C. in a 10% CO2, 90% air humidified atmosphere for the stated length of time. At the end of the incubation, an SRB assay was performed. Briefly, cells attached to the bottom of the plate were fixed by addition of cold trichloroacetic acid (TCA, 4° C., Aldrich, Dorset, UK) on the top of the growth medium (final TCA 20% w/v). The plate was placed at 4° C. for 1 hour before being gently washed five times with tap water. It was allowed to dry in air, or aided with a hair dryer to speed up the drying process, then 50 μl of 4% w/v SRB dissolved in 1% acetic acid in water was added to each well for 30 min. […] The plate was shaken for 15 min on a gyratory shaker followed by reading the optical density (OD) at 550 nm in a microplate spectrophotometer (Anthos Labtec HT3, version 1.06). […]

FM21E human melanocytes = test: Effects of piperine and TPA on growth of human melanocytes, 24-well plate, SRB assay; format: cell-based
Experimental: as §2
For the first protocol, subconfluent human melanocytes maintained in a Ø100 mm petri dish were subcultured into two 24-well plates (Falcon) using basic culture medium of RPMI 1640 supplemented with FBS (10%), bFGF (100 pM), CT (1 nM) and endothelin 1 (1 nM). The initial plating density was 20,000 cells/cm^2 (38,200 cells/well) with each well containing 1000 μl medium. After incubation in a 10% CO2, humidified atmosphere, at 37° C. for 2-3 hours to allow the attachment of the cells, piperine in 500 μl medium was added into wells to made up final concentrations of 0, 1, 5, 10 and 100 μM. Cells only in the medium with above supplement lacking of endothelin 1 were also set up as negative control. Six replicates were used in each group of treatment, and culture was incubated for 5 days before the cells were harvested by fixing with cold TCA (final concentration 20%) and processed with SRB assay. The solubilized SRB dye solution was transferred to a 96-well plate for optical density reading.

B16F10 mouse melanoma = test: Effects of piperine and TPA on growth of B16F10 (panel); format: cell-based
Experimental: as §2

human melanocytes [2] = test: Proliferation of human melanocytes cultured in petri dishes, haemocytometer count; format: cell-based
Experimental: as §1

melan-a cells [3] = test: Effect of RO-31-8220 on growth of melan-a cells with piperine and TPA, SRB assay; format: cell-based, mouse; settings: 4 days
Experimental: as §3

melan-a cells [4] = test: Proliferation of melan-a cells counted with haemocytometer; format: cell-based, mouse; design: unit not given here; settings: 20 nM TPA; 4 days
Experimental: Melan-a cells were plated in petri dishes (Ø35 mm, Nunclon, Denmark) with a plating density of 2×10^4/ml and Piper nigrum extract at concentrations of 0.01 and 0.1 mg/ml. A negative control (cells in medium only) and positive TPA (20 nM) control were also set up. After 4 days the cells in each dish were harvested and counted with haemocytometer.

What does the source list for `O=C(/C=C/C=C/c1ccc2c(c1)OCO2)N1CCCCC1` [Piperine, (E,E)-1-[5-(1,3-benzodioxol-5-yl)-1-oxo-2,4-pentadienyl]piperidine]?
Melanin content/10^4 cells (human melanocytes [1]; ET1 (1 nM) + piperine (1 μM)): 0.42 ± 0.03 μg; OD reading ± SD at 475 nm (human melanocytes [1]; ET1 (1 nM) + piperine (1 μM)): 0.134 ± 0.014; Melanin content/10^4 cells (human melanocytes [1]; ET1 (1 nM) + piperine (5 μM)): 0.334 ± 0.01 μg; Melanin content/10^4 cells (human melanocytes [1]; ET1 (1 nM) + piperine (10 μM)): 0.41 ± 0.07 μg; Melanin content/10^4 cells (human melanocytes [1]; ET1 (1 nM) + piperine (100 μM)): 0.46 ± 0.001 μg; more cell yield compared to vehicle control (FM21E Melanoblast; 100 μM piperine for 5 days): 34%; effect on melan-a proliferation (Melan-a): significantly stimulated melan-a proliferation; more cells yielded (FM21E human melanocytes; 10 μM piperine for 5 days, 24-well plate, ET1 1 nM): 36%; effect on the growth of human melanocytes (FM21E human melanocytes; piperine 100 μM, 24-well plate): inhibitory effect; effect on B16 mouse melanoma cell line (B16F10 mouse melanoma): inhibitory effects; cell number relative to ET1 (1 nM) control (human melanocytes [2]; 5 μM piperine for 5 days, petri dishes): over twice as many; Cell no. (×10^−4) ± SD after cultured for 5 days (human melanocytes [2]; ET1 (1 nM) + piperine (1 μM)): 60.83 ± 16.78 ×10^−4; Cell no. (×10^−4) ± SD after cultured for 5 days (human melanocytes [2]; ET1 (1 nM) + piperine (5 μM)): 78.96 ± 5.63 ×10^−4; Cell no. (×10^−4) ± SD after cultured for 5 days (human melanocytes [2]; ET1 (1 nM) + piperine (10 μM)): 64.79 ± 13.47 ×10^−4; Cell no. (×10^−4) ± SD after cultured for 5 days (human melanocytes [2]; ET1 (1 nM) + piperine (100 μM)): 61.04 ± 10.04 ×10^−4; activity at 1 µM (human melanocytes [2]; Homo sapiens, Melanocyte, 120 h, ET1 (1 nM) + piperine (1 μM), 5 days, read-out: % of control (ET1 1 nM)): 169%; activity at 5 µM (human melanocytes [2]; Homo sapiens, Melanocyte, 120 h, ET1 (1 nM) + piperine (5 μM), 5 days, read-out: % of control (ET1 1 nM)): 219%; activity at 10 µM (human melanocytes [2]; Homo sapiens, Melanocyte, 120 h, ET1 (1 nM) + piperine (10 μM), 5 days, read-out: % of control (ET1 1 nM)): 180%; activity at 100 µM (human melanocytes [2]; Homo sapiens, Melanocyte, 120 h, ET1 (1 nM) + piperine (100 μM), 5 days, read-out: % of control (ET1 1 nM)): 169%

Which results are given for `Cn1cc(C2=C(c3cn(CCCSC(=N)N)c4ccccc34)C(=O)NC2=O)c2ccccc21` [RO-31-8220]?
effect of RO-31-8220 on the proliferant effects of piperine and TPA on melan-a cells (melan-a cells [3]; RO-31-8220 0.1-100 nM, piperine 1 μM, TPA 20 nM): effectively inhibited; cytotoxic effect of RO-31-8220 alone on melan-a cells (melan-a cells [3]; concentrations up to 100 nM): did not have significant cytotoxic effect

“tetradecanoyl phorbol acetate [TPA, reference compound]” was tested. Which “more cell yield compared to vehicle control” value (FM21E Melanoblast; TPA 20 nM for 5 days) did it give?
Its value is “over 50%”.

What about the “effect on the growth of human melanocytes” value (FM21E human melanocytes; TPA 20 nM in the presence of 1 nM endothelin 1) of the same compound?
Its value is “not able to stimulate cell growth”.

And the cell number (melan-a cells [4])?
The cell number was 5.0*.
